Assay results from US20220389031A1, “MACROCYCLIC SULFONYLAMIDE DERIVATIVES USEFUL AS NLRP3 INHIBITORS” (Inflazome Limited, priority 2019, published 2022).
pIC50: −log10 of the molar value.

Legend:
NLRP3 [1] = biological target: T1, NLRP3 (Homo sapiens, UniProt Q96P20); assay: THP-1 cells pyroptosis assay (LPS + nigericin, resazurin readout); format: cell-based; design: Seed THP-1 cells (25,000 cells/well) containing 1.0 μg/ml LPS; host or cells: THP-1 cells; conditions: NLRP3 inhibitory activity, 1.0 μg/ml LPS, 3 hrs compound, nigericin 5 μM 1 hr
Protocol: THP-1 cells (ATCC #TIB-202) were grown in RPMI containing L-glutamine (Gibco #11835) supplemented with 1 mM sodium pyruvate (Sigma #S8636) and penicillin (100 units/ml)/streptomycin (0.1 mg/ml) (Sigma #P4333) in 10% Fetal Bovine Serum (FBS) (Sigma #F0804). The cells were routinely passaged and grown to confluency (˜10^6 cells/ml). On the day of the experiment, THP-1 cells were harvested and resuspended into RPMI medium (without FBS). The cells were then counted and viability (>90%) checked by Trypan blue (Sigma #T8154). Appropriate dilutions were made to give a concentration of 625,000 cells/ml. To this diluted cell solution was added LPS (Sigma #L4524) to give a […] Final Assay Concentration (FAC). 40 μl of the final preparation was aliquoted into each well of a 96-well plate. The plate thus prepared was used for compound screening.
The following method step-by-step assay was followed for compound screening. • 1. Seed THP-1 cells (25,000 cells/well) containing 1.0 μg/ml LPS in 40 μl of RPMI medium (without FBS) in 96-well, black walled, clear bottom cell culture plates coated with poly-D-lysine (VWR #734-0317) • 2. Add 5 μl compound (8 points half-log dilution, with 10 μM top dose) or vehicle (DMSO 0.1% FAC) to the appropriate wells • 3. Incubate for 3 hrs at 37° C., 5% CO2 • 4. Add 5 μl nigericin (Sigma #N7143) (FAC 5 μM) to all wells • 5. Incubate for 1 hr at 37° C., 5% CO2 • 6. At the end of the incubation period, spin plates at 300×g for 3 mins and remove supernatant • 7. Then add 50 μl of resazurin (Sigma #R7017) (FAC 100 μM resazurin in RPMI medium without FBS) and incubate plates for a further 1-2 hrs at 37° C. and 5% CO2 • 8. Plates were read in an Envision reader at Ex 560 nm and Em 590 nm • 9. IC50 data is fitted to a non-linear regression equation (log inhibitor vs response-variable slope 4-parameters)

NLRP3 [2] = biological target: T1, NLRP3; assay: Human whole blood IL-1β release assay (LPS + nigericin, AlphaLisa); format: cell-based; design: Plate out 80 μl of whole blood containing 1 μg/ml of LPS; from tissue; host or cells: human whole blood from healthy volunteer donors; conditions: NLRP3 inhibitory activity, 1 μg/ml LPS, 3 hrs compound, nigericin 10 μM 1 hr, read-out: HWB IC50
Protocol: For systemic delivery, the ability to inhibit NLRP3 when the compounds are present within the bloodstream is of great importance. For this reason, the NLRP3 inhibitory activity of a number of compounds in human whole blood was investigated in accordance with the following protocol.
Human whole blood in Li-heparin tubes was obtained from healthy donors from a volunteer donor panel. • 1. Plate out 80 μl of whole blood containing 1 μg/ml of LPS in 96-well, clear bottom cell culture plate (Corning #3585) • 2. Add 10 μl compound (8 points half-log dilution with 10 μM top dose) or vehicle (DMSO 0.1% FAC) to the appropriate wells • 3. Incubate for 3 hrs at 37° C., 5% CO2 • 4. Add 10 μl nigericin (Sigma #N7143) (10 μM FAC) to all wells • 5. Incubate for 1 hr at 37° C., 5% CO2 • 6. […] IL-1β was measured according to the manufacturer protocol (Perkin Elmer-AlphaLisa IL-1 Kit AL220F-5000) • 8. IC50 data is fitted to a non-linear regression equation (log inhibitor vs response-variable slope 4-parameters)

T1 sequence (Q96P20 whole entry): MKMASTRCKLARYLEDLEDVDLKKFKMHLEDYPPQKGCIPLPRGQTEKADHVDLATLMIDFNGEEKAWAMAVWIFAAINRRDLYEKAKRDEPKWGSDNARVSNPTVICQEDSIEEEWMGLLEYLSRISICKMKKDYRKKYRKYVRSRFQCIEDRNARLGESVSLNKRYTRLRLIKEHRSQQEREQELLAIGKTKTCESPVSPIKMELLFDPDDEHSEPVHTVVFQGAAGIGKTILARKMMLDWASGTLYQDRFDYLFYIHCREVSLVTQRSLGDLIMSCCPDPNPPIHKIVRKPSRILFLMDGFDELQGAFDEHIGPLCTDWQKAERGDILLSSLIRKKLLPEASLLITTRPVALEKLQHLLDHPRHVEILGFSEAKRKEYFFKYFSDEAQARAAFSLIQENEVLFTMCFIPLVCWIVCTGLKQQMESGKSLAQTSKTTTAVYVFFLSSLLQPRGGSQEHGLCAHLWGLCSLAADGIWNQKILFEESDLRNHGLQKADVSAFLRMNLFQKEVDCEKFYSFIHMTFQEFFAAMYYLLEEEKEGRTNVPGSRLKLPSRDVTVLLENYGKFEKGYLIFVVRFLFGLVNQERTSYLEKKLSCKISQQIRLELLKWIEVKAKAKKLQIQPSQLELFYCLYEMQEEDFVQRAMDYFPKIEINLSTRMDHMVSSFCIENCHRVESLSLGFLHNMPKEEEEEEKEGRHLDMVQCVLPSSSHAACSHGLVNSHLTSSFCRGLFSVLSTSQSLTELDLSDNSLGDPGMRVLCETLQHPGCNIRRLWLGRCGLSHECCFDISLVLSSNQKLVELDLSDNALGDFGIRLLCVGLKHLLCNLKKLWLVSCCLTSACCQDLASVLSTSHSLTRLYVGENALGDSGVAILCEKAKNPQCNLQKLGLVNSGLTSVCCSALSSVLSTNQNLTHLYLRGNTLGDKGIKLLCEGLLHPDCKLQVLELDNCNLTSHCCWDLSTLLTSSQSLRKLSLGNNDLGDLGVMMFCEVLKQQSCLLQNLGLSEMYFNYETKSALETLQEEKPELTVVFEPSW

Row | Compound | pIC50 (NLRP3 [1]) | pIC50 (NLRP3 [2])
1 | COc1cn2nc1S(=O)(=O)NC(=O)Cc1c(cc(F)cc1C(C)C)-c1ccnc(c1)OCC2(C)C [Example 19] | 6.30 to 7.00 | 6.00 to 6.30
2 | CC(C)c1cccc2c1CC(=O)NS(=O)(=O)c1cnn(n1)C(C)(C)COc1cc-2ccn1 [Example 36] | 5.30 to 6.00 | 5.30 to 6.00
3 | CC(C)c1cc(F)cc2c1CC(=O)NS(=O)(=O)c1cc(C(=O)N(C)C)n(n1)C(C)(C)COc1cc-2ccn1 [Example 41] | 5.30 to 6.00 | 5.30 to 6.00
4 | CC(C)c1cccc2c1CC(=O)NS(=O)(=O)c1nn(c3ncccc13)C(C)(C)COc1cc-2ccn1 [Example 37] | 6.00 to 6.30 | 5.30 to 6.00
5 | CC(C)c1cccc2c1CC(=O)NS(=O)(=O)c1ccn(n1)C(C)(C)COc1cc-2ccn1 [Example 1, 16,16-dimethyl-6-(propan-2-yl)-18-oxa-11λ^6-thia-10,15,20,24-tetraaza-tetracyclo[17-3-1-1^12,15.0^2,7]tetracosa-1(22),2(7),3,5,12(24),13,19(23),20-octaene-9,11,11-trione] | 5.30 to 6.00 | 5.30 to 6.00
6 | CC(C)c1cccc2c1CC(=O)NS(=O)(=O)c1nn(cc1F)C(C)(C)CCOc1cc-2ccn1 [Example 31] | 5.30 to 6.00 | 5.30 to 6.00
7 | CC(C)c1cccc2c1CC(=O)NS(=O)(=O)c1ccn(n1)CCOc1cc-2ccn1 [Example 4] | 5.30 to 6.00 | 5.00 to 5.30
8 | CC(C)c1cc(F)cc2c1CC(=O)NS(=O)(=O)c1nn(cc1F)C(C)(C)COc1cc-2ccn1 [Example 15] | 6.30 to 7.00 | 5.30 to 6.00
9 | Cc1nn2cc1S(=O)(=O)NC(=O)Cc1c(cccc1C(C)C)-c1ccnc(c1)OCC2(C)C [Example 24] | 6.00 to 6.30 | 5.30 to 6.00
10 | CC(C)c1cccc2c1CC(=O)NS(=O)(=O)c1nn(cc1F)-c1ncccc1COc1cc-2ccn1 [Example 38] | 5.30 to 6.00 | 5.30 to 6.00
11 | CC1(C)COc2cc(ccn2)-c2cccc(C3CC3)c2CC(=O)NS(=O)(=O)c2nn1cc2F [Example 27] | 5.30 to 6.00 | 6.00 to 6.30
12 | CC(C)c1cc(F)cc2c1CC(=O)NS(=O)(=O)c1nn(cc1F)C1(CC1)COc1cc-2ccn1 [Example 20] | 6.00 to 6.30 | 5.30 to 6.00
13 | CC(C)c1cccc2c1CC(=O)NS(=O)(=O)c1ccn(n1)CCOc1cc-2cnn1 [Example 44, 6-(propan-2-yl)-18-oxa-11λ^6-thia-10,15,20,21,24-pentaazatetracyclo-[17.3.1.1^12,15.0^2,7]tetracosa-1(22),2(7),3,5,12(24),13,19(23),20-octaene-9,11,11-trione] | 5.30 to 6.00 | 5.00 to 5.30
14 | CC(C)c1cccc2c1CC(=O)NS(=O)(=O)c1cc(cc(C(C)(C)O)c1)CCOc1cc-2ccn1 [Example 11] | 6.30 to 7.00 | 5.30 to 6.00
15 | Cc1ccc(C(C)C)c2c1-c1ccnc(c1)OCC(C)(C)n1ccc(n1)S(=O)(=O)NC(=O)C2 [Example 2] | 5.30 to 6.00 | 6.00 to 6.30
16 | CC(C)c1cc(F)cc2c1CC(=O)NS(=O)(=O)c1nn(c(C(=O)N(C)C)c1F)C(C)(C)COc1cc-2ccn1 [Example 39] | 5.30 to 6.00 | 5.30 to 6.00
17 | Cc1ccc(C(C)C)c2c1-c1ccnc(c1)OCCn1cc(F)c(n1)S(=O)(=O)NC(=O)C2 [Example 13] | 5.30 to 6.00 | 5.30 to 6.00
18 | Cc1ccc(C(C)C)c2c1-c1ccnc(c1)OCC(C)(C)n1cc(F)c(n1)S(=O)(=O)NC(=O)C2 [Example 12] | 6.00 to 6.30 | 6.00 to 6.30
19 | CC(C)c1cccc2c1CC(=O)NS(=O)(=O)c1cc(CN(C)C)n(n1)CCCCCOc1cc-2ccn1 [Example 3] | 5.00 to 5.30 | 5.00 to 5.30
20 | CC(C)c1cccc2c1CC(=O)NS(=O)(=O)c1cnn(c1)CCOc1cc-2ccn1 [Example 21] | 5.30 to 6.00 | 5.00 to 5.30
21 | CC(C)c1cc(F)cc2c1CC(=O)NS(=O)(=O)c1cnn(c1)CCOc1cc-2ccn1 [Example 22] | 5.30 to 6.00 | 5.00 to 5.30
22 | CC(C)c1cccc2c1CC(=O)NS(=O)(=O)c1cn(cn1)C(C)(C)COc1cc-2ccn1 [Example 33] | 6.00 to 6.30 | 5.30 to 6.00
23 | CC(C)c1cccc2c1CC(=O)NS(=O)(=O)c1cc(n(C(C)C)n1)CCOc1cc-2ccn1 [Example 10] | 5.30 to 6.00 | 5.30 to 6.00
24 | CCN1CCc2c3nn(c2C1)C(C)(C)COc1cc(ccn1)-c1cc(F)cc(C(C)C)c1CC(=O)NS3(=O)=O [Example 40] | 5.30 to 6.00 | 5.30 to 6.00
25 | CC(C)(O)c1cc2cc(c1)S(=O)(=O)NC(=O)Cc1c(ccc3c1CCC3)-c1ccnc(c1)OCC2 [Example 17, 17-(2-hydroxypropan-2-yl)-22-oxa-14λ^6-thia-13,24-diazapentacyclo-[21.3.1.1^15,19.0^2,10.0^5,9]octacosa-1(26),2,4,9,15,17,19(28),23(27),24-nonaene-12,14,14-trione] | 6.00 to 6.30 | 5.30 to 6.00
